Measured values: patent US7301005B2, “Immunomodulatory peptides derived from heat shock proteins and uses thereof” (priority 2000, dated 2007)
Marks after values point to notes of the source that are not given here.

Experiments:
Type in all cases: cell-based, human
[1] = tested on: SFMC from patients with oJIA; test: Proliferative response of SFMC incubated with dnaJ and restimulated with autologous feeder cells plus peptide; details: for SI: Table 3, dnaJ 72 hr then restimulated with peptide, mean+SD
Procedure: Results, expressed as stimulation index (SI), are shown as mean+SD.
In order to identify possible relevant epitopes on the bacterial dnaJ protein, PBMC and SFMC of patients with oJIA were incubated for 72 hr with dnaJ, and restimulated with autologous feeder cells the in presence or absence of selected E. coli derived MHC class II binder peptides for 96 hr.
(§1) In order to evaluate whether human homologous peptides could be the target of cross-recognition leading to self reactivity, human peptides derived from regions of HSJ1, HDJ1, or HDJ2 having sequence homology with E. coli dnaJ were studied. SFMC of 14 patients with oJIA presenting a SI to the recombinant E. coli hsp dnaJ greater than 3 were restimulated for 96 hr with autologous cells in presence or absence of human peptide 2, 3, or 5, which are homologs of bacterial peptide 4; human peptide 20, 21, or 23, which are homologs of bacterial peptide 22; or human peptide 164, 167, or 176, which are homologs of bacterial peptide 174. SFMC proliferative responses, pro-inflammatory cytokine production, and anti-inflammatory IL-4 levels were overall similar between the peptides derived from human dnaJ proteins and the homologous bacterial peptides.
Results are expressed as SI or pg/ml (mean+SD). […]
To explore the possible correlation of clinical features with the development of peptide-induced immune modulation, oJIA patients were grouped according to the course of disease, including those with persistent disease (n=16), and those with extended disease (n=15) o-JIA. (FIG. 25).

[2] = tested on: SFMC from patients with oJIA; test: Cytokine production in culture supernatants of SFMC incubated with dnaJ and restimulated with autologous feeder cells plus peptide; details: for IFNγ / IL-6 / TNFα / IL-4 / IL-10: mean+SD; for production of IL-10 in patients with extended oligoarthritis: three patients with extended oligoarthritis at sampling; for IL-10 production detectable or not: culture supernatants of SFMC
From the text: Results are expressed as pg/ml (mean+SD).
Cytokine production to the same peptides was examined in culture supernatants of SFMC from patients with oJIA. […] SFMC from only one of 21 patients with oJIA produced detectable levels of the anti-inflammatory cytokine IL-10, and none produced detectable levels of IL-4.
as §1
Results are expressed as SI or pg/ml (mean+SD).

[3] = tested on: peripheral blood mononuclear cells (PBMC); test: Proliferative response (stimulation index) of PBMC stimulated with antigen for 96 hr; details: PBMC
[4] = tested on: synovial fluid mononuclear cells (SFMC) from patients with oJIA; test: Proliferative response (stimulation index) of SFMC stimulated with antigen for 96 hr; details: SFMC
[5] = Table 3, dnaJ 72 hr then restimulated with peptide
[6] = Table 1, dnaJ 72 hr then restimulated with peptide 72 hr

| Substance | SI [1] | IFNγ [2, 5] | IL-6 [2, 5] | TNFα [2, 5] | IFNγ [2, 6] [pg/mL] | IL-4 [2, 6] [pg/mL] | IL-6 [2, 6] [pg/mL] | IL-10 [2, 6] [pg/mL] | TNFα [2, 6] [pg/mL] | also measured |
| --- | --- | --- | --- | --- | --- | --- | --- | --- | --- | --- |
| ASYYEILDVPRSASA (listed as Homo sapiens) [Peptide 2, human HSJ1 peptide, homologue of bacterial dnaJ peptide 4] | 5.9 + 5.7 | 51.3 + 72.4 pg/ml | 41.7 + 43.8 pg/ml | 23.2 + 26.8 pg/ml | – | – | – | – | – | – |
| DLQLAMAYSLSEMEA (listed as Homo sapiens) [Peptide 254, non-homologous human peptide (HSJ1)] | – | – | – | – | – | – | – | – | – | production of IL-10 in patients with extended oligoarthritis [2]: reduced production of IL-10 |
| EDLFMCMDIQLVEAL (listed as Homo sapiens) [Peptide 256, non-homologous human peptide (HDJ2)] | – | – | – | – | – | – | – | – | – | production of IL-10 in patients with extended oligoarthritis [2]: reduced production of IL-10 |
| FRSVSTSTTFVQGRR (listed as Homo sapiens) [Peptide 164, human HSJ1 peptide, homologue of bacterial dnaJ peptide 174] | 4.2 + 4.0 | 52.5 + 85.2 pg/ml | 27.3 + 31.3 pg/ml | 13.5 + 18.9 pg/ml | – | – | – | – | – | – |
| GDLYVQVQVKQHPIF (listed as Escherichia coli) [Peptide 242, bacterial (E. coli) dnaJ peptide] | – | – | – | – | 41.2 ± 48.8 | <0.39 | 34.1 ± 41.7 | 5.3 ± 6.6 | 14.2 ± 29.2 | – |
| GRRITTRRIMENGQE (listed as Homo sapiens) [Peptide 176, human HSJ1 peptide, homologue of bacterial dnaJ peptide 174] | 4.3 + 2.7 | 45.6 + 68.3 pg/ml | 21.2 + 25.2 pg/ml | 8.9 + 10.3 pg/ml | – | – | – | – | – | – |
| KDYYQTLGLARGASD (listed as Homo sapiens) [Peptide 3, human HDJ1 peptide, homologue of bacterial dnaJ peptide 4] | 8.0 + 7.5 | 57.5 + 85.7 pg/ml | 114.0 + 126 pg/ml | 10.3 + 9.9 pg/ml | – | – | – | – | – | – |
| KKAYRKLALKYHPDK (listed as Homo sapiens) [Peptide 23, human HDJ2 peptide, homologue of bacterial dnaJ peptide 22] | 4.7 + 4.0 | 38.2 + 75 pg/ml | 33.3 + 32.7 pg/ml | 7.7 + 7.6 pg/ml | – | – | – | – | – | IL-10 production detectable or not [2]: did not induce detectable levels of IL-10 |
| KKAYRRKALQWHPDK (listed as Homo sapiens) [Peptide 20, human HSJ1 peptide, homologue of bacterial dnaJ peptide 22] | 4.7 + 4.7 | 25.3 + 47.4 pg/ml | 33.0 + 34.0 pg/ml | 11.8 + 11.2 pg/ml | – | – | – | – | – | IL-10 production detectable or not [2]: did not induce detectable levels of IL-10 |
| KRAYRRQALRYHPDK (listed as Homo sapiens) [Peptide 21, human HDJ1 peptide, homologue of bacterial dnaJ peptide 22] | 4.6 + 4.2 | 30.8 + 56.4 pg/ml | 33.5 + 43.8 pg/ml | 26.6 + 39.3 pg/ml | – | – | – | – | – | IL-10 production detectable or not [2]: did not induce detectable levels of IL-10 |
| PGMVQQIQSVCMECQ (listed as Homo sapiens) [Peptide 167, human HDJ2 peptide, homologue of bacterial dnaJ peptide 174] | 3.9 + 3.1 | 38.3 + 61.2 pg/ml | 23.0 + 22.3 pg/ml | 7.3 + 7.3 pg/ml | – | – | – | – | – | – |
| PINFAMAALGGEIEV (listed as Escherichia coli) [Peptide 268, bacterial (E. coli) dnaJ peptide] | – | – | – | – | 34.7 ± 51.2 | <0.39 | 45 ± 58.4 | <3.9 | 17.2 ± 30.1 | – |
| QAYEVLSDAKKRELYD (listed as Homo sapiens) [Peptide 50, non-homologous human peptide (HDJ2)] | – | – | – | – | – | – | – | – | – | production of IL-10 in patients with extended oligoarthritis [2]: reduced production of IL-10 |
| QDYYEILGVSKTAEE (listed as Escherichia coli) [Peptide 4, bacterial (E. coli) dnaJ peptide] | 4.1 + 3.33 | 30.8 + 52.4 pg/ml | 60.2 + 60.3 pg/ml | 6.0 + 4.5 pg/ml | 38.5 ± 47.7 | <0.39 | 49.8 ± 54.0 | 5.4 ± 6.9 | 9.8 ± 21.2 | – |
| QGFFAVQQTCPHCQG (listed as Escherichia coli) [Peptide 174, bacterial (E. coli) dnaJ peptide] | 5.9 + 7.5 | 31.4 + 53.1 pg/ml | 56.4 + 70 pg/ml | 16.1 + 30.9 pg/ml | 29.8 ± 44.6 | <0.39 | 47.3 ± 61.2 | 4.2 ± 1.9 | 16.1 ± 31.5 | – |
| QKRAAYDQYGHAAFEQ (listed as Escherichia coli) [Peptide 61, bacterial (E. coli) dnaJ peptide] | – | – | – | – | 31 ± 45.7 | <0.39 | 47.6 ± 70.5 | <3.9 | 22.6 ± 35.3 | – |
| RKAYKRLAMKYHPDR (listed as Escherichia coli) [Peptide 22, bacterial (E. coli) dnaJ peptide] | 4.7 + 4.0 | 20.1 + 33.5 pg/ml | 54.3 + 69.0 pg/ml | 10.5 + 23.1 pg/ml | 27 ± 38.0 | <0.39 | 45.7 ± 57.7 | 4.4 ± 2.7 | 14.1 ± 26.8 | IL-10 production detectable or not [2]: did not induce detectable levels of IL-10 |
| RTIVITSHPGQIVKH (listed as Homo sapiens) [Peptide 283, non-homologous human peptide (HDJ2)] | – | – | – | – | – | – | – | – | – | production of IL-10 in patients with extended oligoarthritis [2]: reduced production of IL-10 |
| SKTLSVKIPGAVDTG (listed as Escherichia coli) [Peptide 209, bacterial (E. coli) dnaJ peptide] | – | – | – | – | 41.3 ± 46.9 | <0.39 | 56.6 ± 65.9 | 6.2 ± 5.8 | 15.3 ± 29.2 | – |
| TTYYDVLGVKPNATQ (listed as Homo sapiens) [Peptide 5, human HDJ2 peptide, homologue of bacterial dnaJ peptide 4] | 8.2 + 7.3* | 69.5 + 105.2@ pg/ml | 60.0 + 67.2 pg/ml | 18.9 + 16.9 pg/ml | – | – | – | – | – | proliferative response compared with bacterial homolog ([1]; p<0.03): significantly greater; IFNγ production compared with bacterial homolog ([2]; p<0.05): significantly greater |
| YCEVPTNFAMAALGG [Peptide 264] | – | – | – | – | 44.9 ± 55.8 | <0.39 | 47.4 ± 61.2 | <3.9 | 14.0 ± 29.3 | – |
| tetanus toxoid [TT, reference compound] | – | – | – | – | – | – | – | – | – | median SI [3]: 12.3; median SI [4]: 6.0 |
